Measurements: BindingDB's records for PubMed 29656203 (n/a, 2018)

Test: Inhibition of angiotensin II (unknown origin)

| IC50 [nM] | Compound |
| --- | --- |
| 22 | CCCCc1nc2ccc(C3CC(c4ccc(C)cc4)=NO3)cc2c(=O)n1Cc1ccc(-c2ccccc2-c2nnnn2C(c2ccccc2)(c2ccccc2)c2ccccc2)cc1 (configuration not stated) |
| 22 | CCCCc1nc2ccc(C3CC(C(=O)OCC)=NO3)cc2c(=O)n1Cc1ccc(-c2ccccc2-c2nnnn2C(c2ccccc2)(c2ccccc2)c2ccccc2)cc1 (configuration not stated) |
